Measured values from ChEMBL document CHEMBL3217562, “N-Substituted salicylamides as selective malaria parasite dihydroorotate dehydrogenase inhibitors” (Medchemcomm, 2011).

What was measured:
[1] = target: T1, Dihydroorotate dehydrogenase (Plasmodium falciparum, UniProt Q54A96); test: Inhibition of N-terminal truncated Plasmodium falciparum recombinant DHODH assessed as ubiquinone reduction to 2,6-dichloroindophenol by spectrophotometric analysis
T1 sequence (Q54A96 whole entry): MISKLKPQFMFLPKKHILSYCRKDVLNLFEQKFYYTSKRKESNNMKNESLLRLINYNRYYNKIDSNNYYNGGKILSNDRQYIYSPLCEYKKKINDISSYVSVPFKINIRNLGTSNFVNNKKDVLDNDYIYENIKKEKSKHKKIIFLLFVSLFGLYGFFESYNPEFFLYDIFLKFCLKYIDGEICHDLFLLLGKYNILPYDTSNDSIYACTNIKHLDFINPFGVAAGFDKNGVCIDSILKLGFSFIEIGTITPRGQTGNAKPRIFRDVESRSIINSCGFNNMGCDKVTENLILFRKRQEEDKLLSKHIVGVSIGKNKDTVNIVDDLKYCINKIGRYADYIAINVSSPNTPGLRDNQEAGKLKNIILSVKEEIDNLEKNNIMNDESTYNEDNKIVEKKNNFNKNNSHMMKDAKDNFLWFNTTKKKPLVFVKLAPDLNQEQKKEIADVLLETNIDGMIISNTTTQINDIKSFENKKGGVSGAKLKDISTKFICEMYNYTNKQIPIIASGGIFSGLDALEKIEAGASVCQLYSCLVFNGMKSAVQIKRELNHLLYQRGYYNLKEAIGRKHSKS

[2] = target: T2, Dihydroorotate dehydrogenase (quinone), mitochondrial (Homo sapiens, UniProt Q02127); test: Inhibition of N-terminal truncated human recombinant DHODH assessed as ubiquinone reduction to 2,6-dichloroindophenol by spectrophotometric analysis
[3] = target: T3, Dihydroorotate dehydrogenase (Plasmodium falciparum) (UniProt Q54A96); test: Inhibition of N-terminal truncated Plasmodium falciparum recombinant DHODH assessed as ubiquinone reduction to 2,6-dichloroindophenol at 10 uM by spectrophotometric analysis relative to control
T3 sequence (whole entry): T1 sequence (Q54A96 whole entry)

[4] = target: T2, Dihydroorotate dehydrogenase (quinone), mitochondrial; test: Inhibition of N-terminal truncated human recombinant DHODH assessed as ubiquinone reduction to 2,6-dichloroindophenol at 10 uM by spectrophotometric analysis relative to control
[5] = Selectivity ratio of IC50 for N-terminal truncated human recombinant DHODH to IC50 for N-terminal truncated Plasmodium falciparum recombinant DHODH
[6] = system: Plasmodium falciparum; test: Antiplasmodial activity against Plasmodium falciparum 3D7 after 48 hrs by [3H]-hypoxanthine incorporation assay; format: functional, organism-based
[7] = target: T3, Dihydroorotate dehydrogenase (Plasmodium falciparum); test: Inhibition of N-terminal truncated Plasmodium falciparum recombinant DHODH assessed as ubiquinone reduction to 2,6-dichloroindophenol at 100 uM by spectrophotometric analysis relative to control

T2 sequence (Q02127 whole entry, the tested form may be a part): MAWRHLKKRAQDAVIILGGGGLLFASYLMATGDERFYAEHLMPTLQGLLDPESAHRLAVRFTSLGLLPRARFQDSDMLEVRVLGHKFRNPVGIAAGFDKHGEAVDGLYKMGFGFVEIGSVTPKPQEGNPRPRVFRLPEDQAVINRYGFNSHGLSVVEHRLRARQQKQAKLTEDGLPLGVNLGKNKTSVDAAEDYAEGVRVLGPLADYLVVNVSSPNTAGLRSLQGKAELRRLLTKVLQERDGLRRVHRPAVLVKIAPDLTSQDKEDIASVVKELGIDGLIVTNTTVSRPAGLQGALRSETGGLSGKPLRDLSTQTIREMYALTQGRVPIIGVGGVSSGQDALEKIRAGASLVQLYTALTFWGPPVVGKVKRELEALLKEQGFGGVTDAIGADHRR

IC50 [1]	IC50 [2]	inhibition [3]	inhibition [4]	SMILES	also measured
		7%	8%	COc1cccc(C(=O)NCCc2ccccc2)c1O	
9.1 µM	> 200 µM			O=C(NCC(c1ccccc1)c1ccccc1)c1cc(Cl)ccc1O	Ratio IC50 [5]: 18; EC50 [6]: 23 µM
9.9 µM	130 µM			O=C(NCC(c1ccccc1)c1ccccc1)c1ccc(F)c(F)c1O	Ratio IC50 [5]: 18; EC50 [6]: 100 µM
		9%	5%	COc1ccc(C(=O)NCCc2ccccc2)c(O)c1	
46.2 µM	> 200 µM			O=C(NCC(c1ccccc1)c1ccccc1)c1ccc(CO)cc1O	
> 125 µM				COc1cccc(O)c1C(=O)NCC(c1ccccc1)c1ccccc1	
16.5 µM	> 200 µM			O=Cc1ccc(C(=O)NCC(c2ccccc2)c2ccccc2)c(O)c1	
		16%	4%	O=C(NCc1ccccc1)c1ccccc1O	
26.1 µM	> 200 µM			O=C(NCC(c1ccccc1)c1ccccc1)c1cccc(F)c1O	
14.4 µM	> 200 µM			Cc1ccc(O)c(C(=O)NCC(c2ccccc2)c2ccccc2)c1	
10.8 µM	> 200 µM			O=C(NCC(c1ccccc1)c1ccccc1)c1cc(Br)ccc1O	
		8%	8%	COc1ccc(O)c(C(=O)NCCc2ccccc2)c1	
		17%	15%	O=C(NCCc1ccccc1)c1c(O)cccc1O	
> 100 µM	> 200 µM			O=C(NCC(c1ccccc1)c1ccccc1)c1cccc(CO)c1O	
		0%	6%	O=C(NC(c1ccccc1)c1ccccc1)c1ccccc1O	

Further lines, the compound ahead of its results:

SMILES	IC50 [1]	IC50 [2]	inhibition [3]	inhibition [4]	also measured
COc1cccc(C(=O)NCC(c2ccccc2)c2ccccc2)c1O	> 500 µM	> 200 µM			
Cc1ccc(O)c(C(=O)NCCc2ccccc2)c1			16%	4%	
CN(CCc1ccccc1)C(=O)c1ccccc1O			3%	3%	
O=C(NCC(c1ccccc1)c1ccccc1)c1cc(CO)ccc1O	8 µM	> 200 µM			Ratio IC50 [5]: 18; EC50 [6]: 53 µM
O=C(NCC(c1ccccc1)c1ccccc1)c1cc(Cl)cc(Cl)c1O	7 µM	> 200 µM			Ratio IC50 [5]: > 20; EC50 [6]: 170 µM
COc1ccc(C(=O)NCC(c2ccccc2)c2ccccc2)c(O)c1	14 µM	> 200 µM			
O=C(NCCC(c1ccccc1)c1ccccc1)c1ccccc1O			22%	21%	
O=C(NCCCc1ccccc1)c1ccccc1O			39%	7%	
O=C(NCCc1ccccc1)c1cc([N+](=O)[O-])ccc1O			5%	26%	
O=C(NCC(c1ccccc1)c1ccccc1)c1ccccc1O	21.2 µM	> 200 µM	38%	4%	
O=C(NCC(c1ccccc1)c1ccccc1)c1cccc(Cl)c1O	44.1 µM	> 200 µM			
O=C(NCCc1ccccc1)c1cc(Cl)ccc1O			23%	6%	
O=C(NCCc1ccccc1)c1ccccc1O			21%	6%	inhibition [7]: 53%
CC(CNC(=O)c1ccccc1O)c1ccccc1 (racemic)			20%	4%	
O=C(NCCc1ccccc1)c1ccc(Cl)cc1O			16%	8%	
O=C(NCC(c1ccccc1)c1ccccc1)c1ccc(Cl)cc1O	10.3 µM	> 200 µM			
O=C(NCCc1ccccc1)c1cccc(Cl)c1O			10%	8%	
O=C(NCC(c1ccccc1)c1ccccc1)c1c(O)cccc1F	> 125 µM				
COc1ccc(O)c(C(=O)NCC(c2ccccc2)c2ccccc2)c1	18.1 µM	> 200 µM			
